# According to patent US20200390899A1, “AMINOBENZAZEPINE COMPOUNDS, IMMUNOCONJUGATES, AND USES THEREOF” (BOLT BIOTHERAPEUTICS, INC., priority 2019, published 2020):
# Where two headings read alike, the source gives them in different places.
# Key:
# [1] = molecular target: T1, human TLR7 (Homo sapiens, UniProt Q9NYK1); experiment: HEK293 NFKB reporter assay, human TLR7; format: cell-based; details: HEK293 reporter cells expressing human TLR7, read-out: HEK293 hTLR7 EC50
# T1 construct: host or cells: HEK293 reporter cells
# T1 sequence (Q9NYK1 27-1049): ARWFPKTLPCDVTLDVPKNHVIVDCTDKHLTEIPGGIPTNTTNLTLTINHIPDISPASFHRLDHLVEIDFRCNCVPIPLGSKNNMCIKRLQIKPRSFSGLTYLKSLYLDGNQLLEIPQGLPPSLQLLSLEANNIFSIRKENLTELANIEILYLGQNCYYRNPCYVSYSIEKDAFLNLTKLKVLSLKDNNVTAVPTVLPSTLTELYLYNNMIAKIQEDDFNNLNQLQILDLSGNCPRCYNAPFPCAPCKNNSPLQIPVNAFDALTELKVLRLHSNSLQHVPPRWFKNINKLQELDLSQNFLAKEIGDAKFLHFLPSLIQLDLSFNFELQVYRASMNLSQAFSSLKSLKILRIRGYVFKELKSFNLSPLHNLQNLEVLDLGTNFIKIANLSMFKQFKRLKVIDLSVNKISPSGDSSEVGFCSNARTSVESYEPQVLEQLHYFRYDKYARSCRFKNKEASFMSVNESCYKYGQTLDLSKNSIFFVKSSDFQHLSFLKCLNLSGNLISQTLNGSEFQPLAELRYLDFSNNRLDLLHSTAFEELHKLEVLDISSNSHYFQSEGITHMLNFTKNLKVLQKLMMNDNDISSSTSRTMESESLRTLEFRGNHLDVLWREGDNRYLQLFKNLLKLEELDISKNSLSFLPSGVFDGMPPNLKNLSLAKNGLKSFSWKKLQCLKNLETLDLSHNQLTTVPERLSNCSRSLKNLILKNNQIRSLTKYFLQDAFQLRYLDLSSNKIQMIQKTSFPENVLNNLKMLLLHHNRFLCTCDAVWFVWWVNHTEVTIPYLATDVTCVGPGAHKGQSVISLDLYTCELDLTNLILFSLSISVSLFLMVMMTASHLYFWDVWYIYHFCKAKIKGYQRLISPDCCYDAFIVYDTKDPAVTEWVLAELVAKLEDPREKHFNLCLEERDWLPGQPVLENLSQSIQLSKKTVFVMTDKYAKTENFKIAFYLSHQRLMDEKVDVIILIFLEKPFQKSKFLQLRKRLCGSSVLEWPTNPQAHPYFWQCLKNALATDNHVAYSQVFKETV
# Procedure: (§1) Each compound was synthesized and purified by the methods in the Examples provided herein, characterized by mass spectrometry, and shown to have the mass indicated. Activity against HEK293 NFKB reporter cells expressing human TLR7 or human TLR8 was measured according to Example 68.
# (§2) HEK293 reporter cells expressing human TLR7 or human TLR8 were purchased from Invivogen and vendor protocols were followed for cellular propagation and experimentation. Briefly, cells were grown to 80-85% confluence at 5% CO2 in DMEM supplemented with 10% FBS, Zeocin, and Blasticidin. Cells were then seeded in 96-well flat plates at 4×10^4cells/well with substrate containing HEK detection medium and immunostimulatory molecules. Activity was measured using a plate reader at 620-655 nm wavelength.
# [2] = molecular target: T2, human TLR8 (Homo sapiens, UniProt Q9NR97); experiment: HEK293 NFKB reporter assay, human TLR8; format: cell-based; details: HEK293 reporter cells expressing human TLR8, read-out: HEK293 hTLR8 EC50
# T2 construct: host or cells: HEK293 reporter cells
# T2 sequence (Q9NR97 27-1041): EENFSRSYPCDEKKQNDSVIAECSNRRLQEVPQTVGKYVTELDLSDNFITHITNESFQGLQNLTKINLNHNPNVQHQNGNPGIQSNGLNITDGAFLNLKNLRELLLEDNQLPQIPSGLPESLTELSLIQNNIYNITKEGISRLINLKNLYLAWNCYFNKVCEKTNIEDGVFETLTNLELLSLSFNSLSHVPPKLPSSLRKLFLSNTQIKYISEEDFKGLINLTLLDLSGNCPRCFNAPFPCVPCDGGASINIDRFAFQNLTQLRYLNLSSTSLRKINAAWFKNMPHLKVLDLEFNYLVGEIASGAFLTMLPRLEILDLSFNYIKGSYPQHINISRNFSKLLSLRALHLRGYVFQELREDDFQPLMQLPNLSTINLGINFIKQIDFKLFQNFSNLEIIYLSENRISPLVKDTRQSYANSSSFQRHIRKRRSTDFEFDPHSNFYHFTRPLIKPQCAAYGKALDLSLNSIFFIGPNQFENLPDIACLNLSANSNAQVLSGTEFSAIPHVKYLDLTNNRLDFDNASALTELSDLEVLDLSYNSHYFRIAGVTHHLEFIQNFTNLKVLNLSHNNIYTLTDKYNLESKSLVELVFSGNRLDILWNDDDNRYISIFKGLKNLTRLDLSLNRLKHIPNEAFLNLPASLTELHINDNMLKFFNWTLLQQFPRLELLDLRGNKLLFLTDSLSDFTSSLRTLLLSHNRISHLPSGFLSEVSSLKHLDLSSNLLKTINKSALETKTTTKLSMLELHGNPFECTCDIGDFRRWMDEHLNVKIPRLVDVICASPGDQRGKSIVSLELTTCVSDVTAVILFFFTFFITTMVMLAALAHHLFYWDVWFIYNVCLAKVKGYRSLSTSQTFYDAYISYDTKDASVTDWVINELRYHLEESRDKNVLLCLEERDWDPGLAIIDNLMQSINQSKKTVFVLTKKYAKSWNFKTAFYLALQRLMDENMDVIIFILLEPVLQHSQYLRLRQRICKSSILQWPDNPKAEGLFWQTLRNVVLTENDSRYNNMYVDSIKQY
# Procedure: as §1, §2
SMILES,EC50 ([1]; Table 1a),EC50 ([2]; Table 1a),EC50 ([2]; Table 1c),also measured
"CCCN(CCCNC(=O)OC(C)(C)C)C(=O)C1=Cc2ccc(-c3cccc(S(=O)(=O)N4CC(CO)C4)c3)cc2N=C(N)C1 [Bz-1, tert-butyl N-[3-[[2-amino-8-[3-[3-(hydroxymethyl)azetidin-1-yl]sulfonylphenyl]-3H-1-benzazepine-4-carbonyl]-propyl-amino]propyl]carbamate]",571 nM,106 nM,,
CCCN(CCC)C(=O)C1=Cc2ccc(-c3ccc(CN)c(S(=O)(=O)N4CC(CO)C4)c3)cc2N=C(N)C1 [Bz-2],> 9000 nM,9760 nM,,
"CCCN(CCCN(C)C(=O)OC(C)(C)C)C(=O)C1=Cc2ccc(-c3cccc(S(=O)(=O)N4CC(CO)C4)c3)cc2N=C(N)C1 [Bz-3, tert-butyl (3-(2-amino-8-(3-((3-(hydroxymethyl)azetidin-1-yl)sulfonyl)phenyl)-N-propyl-3H-benzo[b]azepine-4-carboxamido)propyl)(methyl)carbamate]",545 nM,4310 nM,,
CCCN(CCCNC(=O)OC(C)(C)C)C(=O)C1=Cc2ccc(-c3ccc(C(=O)N4CCCC4)cc3)cc2N=C(N)C1 [Bz-4],1480 nM,1680 nM,,
"CCCN(CCC)C(=O)C1=Cc2c(CCCCNC(=O)OC(C)(C)C)cc(-c3cccc(S(=O)(=O)N4CC(CO)C4)c3)cc2N=C(N)C1 [Bz-5, tert-butyl (4-(2-amino-4-(dipropylcarbamoyl)-8-(3-((3-(hydroxymethyl)azetidin-1-yl)sulfonyl)phenyl)-3H-benzo[b]azepin-6-yl)butyl)carbamate]",155 nM,256 nM,,
"CCCN(CCC)C(=O)C1=Cc2ccc(-c3cccc(S(=O)(=O)N4CC(CNC(=O)OC(C)(C)C)C4)c3)cc2N=C(N)C1 [Bz-6, tert-butyl ((1-((3-(2-amino-4-(dipropylcarbamoyl)-3H-benzo[b]azepin-8-yl)phenyl)sulfonyl)azetidin-3-yl)methyl)carbamate]",> 9000 nM,265 nM,,
CCCN(CCC)C(=O)C1=Cc2ccc(C(=O)Nc3cncc(CNC(=O)OC(C)(C)C)c3)cc2N=C(N)C1 [Bz-7],> 9000 nM,4.28 nM,,
CCCN(CCCN(C)C(=O)OC(C)(C)C)C(=O)C1=Cc2ccc(-c3ccc(C(=O)N4CCCC4)cc3)cc2N=C(N)C1 [Bz-8],3370 nM,> 9000 nM,,
"CCCN(CCCCCNC(=O)OC(C)(C)C)C(=O)C1=Cc2ccc(-c3cccc(S(=O)(=O)N4CC(CO)C4)c3)cc2N=C(N)C1 [Bz-9, tert-butyl N-[5-[[2-amino-8-[3-[3-(hydroxymethyl)azetidin-1-yl]sulfonylphenyl]-3H-1-benzazepine-4-carbonyl]-propyl-amino]pentyl]carbamate]",8650 nM,629 nM,,
"CCCN(CCNC(=O)OC(C)(C)C)C(=O)C1=Cc2ccc(-c3cccc(S(=O)(=O)N4CC(CO)C4)c3)cc2N=C(N)C1 [Bz-10, tert-butyl (2-(2-amino-8-(3-((3-(hydroxymethyl)azetidin-1-yl)sulfonyl)phenyl)-N-propyl-3H-benzo[b]azepine-4-carboxamido)ethyl)carbamate]",> 9000 nM,> 9000 nM,,
"CCCN(CCCNC(=O)NC(C)(C)C)C(=O)C1=Cc2ccc(-c3cccc(S(=O)(=O)N4CC(CO)C4)c3)cc2N=C(N)C1 [Bz-11, 2-amino-N-[3-(tert-butylcarbamoylamino)propyl]-8-[3-[3-(hydroxymethyl)azetidin-1-yl]sulfonylphenyl]-N-propyl-3H-1-benzazepine-4-carboxamide]",7840 nM,1390 nM,,
"CCCN(CCCNC(=O)Nc1cccc(C#N)c1)C(=O)C1=Cc2ccc(-c3cccc(S(=O)(=O)N4CC(CO)C4)c3)cc2N=C(N)C1 [Bz-12, 2-amino-N-[3-[(3-cyanophenyl)carbamoylamino]propyl]-8-[3-[3-(hydroxymethyl)azetidin-1-yl]sulfonylphenyl]-N-propyl-3H-1-benzazepine-4-carboxamide]",2490 nM,2380 nM,,
"CCCN(Cc1ccc(CN2CCN(C(=O)OC(C)(C)C)CC2)cc1)C(=O)C1=Cc2ccc(-c3cccc(S(=O)(=O)N4CC(CO)C4)c3)cc2N=C(N)C1 [Bz-30, tert-butyl 4-[[4-[[[2-amino-8-[3-[3-(hydroxymethyl)azetidin-1-yl]sulfonylphenyl]-3H-1-benzazepine-4-carbonyl]-propyl-amino]methyl]phenyl]methyl]piperazine-1-carboxylate]",,,,EC50 ([1]; Table 1b): > 9000 nM
CCCN(Cc1ccc(CN2CCN(C(=O)OC(C)(C)C)CC2)cc1)C(=O)C1=Cc2ccc(-c3cccc(S(=O)(=O)N4CC(CO)C4)c3)cc2N=C(N)C1 [Bz-44],,,,EC50 ([1]; Table 1c): ≥ 9000 nM
CCCN(CCC)C(=O)C1=Cc2ccc(-c3c(C)n[nH]c3C)cc2N=C(N)C1 [Bz-45],,,345 nM,
CCCN(CCC)C(=O)C1=Cc2ccc(-c3c(C)nn(S(=O)(=O)N4CC(CO)C4)c3C)cc2N=C(N)C1 [Bz-48],,,499 nM,
CCCN(CCC)C(=O)C1=Cc2ccc(-c3cccc(S(=O)(=O)N4CC5(CNC5)C4)c3)cc2N=C(N)C1 [Bz-52],,,1320 nM,
CCCN(CCC)C(=O)C1=Cc2ccc(-c3cccc(S(=O)(=O)N4CC5(CCNC5)C4)c3)cc2N=C(N)C1 [Bz-53],,,249 nM,
CCCN(CCC)C(=O)C1=Cc2ccc(-c3cccc(S(=O)(=O)N4CCC(N)CC4)c3)cc2N=C(N)C1 [Bz-54],,,198 nM,
CCCN(CCC)C(=O)C1=Cc2ccc(-c3cccc(S(=O)(=O)N4[C@@H]5CNC[C@@H]54)c3)cc2N=C(N)C1 (stereo partly drawn) [Bz-56],,,111 nM,
CCCN(CCC)C(=O)C1=Cc2ccc(-c3cccc(S(=O)(=O)N4CCC5(CCNC5)C4)c3)cc2N=C(N)C1 (stereo not drawn) [Bz-57],,,741 nM,
CCCN(Cc1ccc(CN)cc1)C(=O)C1=Cc2ccccc2N=C(N)C1 [Bz-59],,,870 nM,
CCCN(CCOC)C(=O)C1=Cc2ccc(-c3cccc(S(=O)(=O)N4CC(CO)C4)c3)cc2N=C(N)C1 [Bz-60],,,288 nM,
CCCN(NCC)C(=O)C1=Cc2ccc(-c3cccc(S(=O)(=O)N4CC(CO)C4)c3)cc2N=C(N)C1 [Bz-71],,,2750 nM,
CCCNN(CC)C(=O)C1=Cc2ccc(-c3cccc(S(=O)(=O)N4CC(CO)C4)c3)cc2N=C(N)C1 [Bz-72],,,4250 nM,
CCCN(CCC)C(=O)C1=Cc2ccc(CCCCCN)cc2N=C(N)C1 [Bz-74],,,2560 nM,
CCCN(CCC(F)(F)F)C(=O)C1=Cc2ccc(C(=O)Nc3ccccc3)cc2N=C(N)C1 [Bz-75],,,246 nM,
